What all share (type): functional
One assay deals with Escherichia coli. Kind of assay: Intrinsic binding affinity to Escherichia coli ribosmes by TnT assay.
In another assay the test system is Staphylococcus aureus. Kind of assay: Antibacterial activity against Staphylococcus aureus by broth microdilution method. Background: Dilution methods test growth across graded concentrations, often in twofold steps.
In the next assay the test system is Streptococcus pneumoniae. Put plainly: Antibacterial activity against Streptococcus pneumoniae by broth microdilution method.
A further assay deals with Enterococcus faecalis. Put plainly: Antibacterial activity against Enterococcus faecalis by broth microdilution method.

Our source for the IC50 and MIC90 values is ChEMBL document CHEMBL1146253, “A distal methyl substituent attenuates mitochondrial protein synthesis inhibition in oxazolidinone antibacterials” (Bioorg Med Chem Lett, 2007).

Converted amounts (≈) assume the structure as drawn.

Usually IC50 stands for the concentration needed to halve the response being measured. Broadly, the MIC90 is the lowest concentration that inhibits either 90% of growth or 90% of the strains tested, depending on the study. Read a high MIC90 as lower susceptibility. `CC(=O)NC[C@H]1CN(c2cc(F)c(N3CC(F)C3)c(F)c2)C(=O)O1` returned an IC50 in the assay with Escherichia coli of 1400 nM. In addition, the MIC90 with Staphylococcus aureus came to 2 µg/mL (≈ 5.83 µM); with Streptococcus pneumoniae, 1 µg/mL (≈ 2.91 µM); in the assay on Enterococcus faecalis, 2 µg/mL (≈ 5.83 µM).

The compound `CC(=O)NC[C@H]1CN(c2cc(F)c(N3CC(C)(F)C3)c(F)c2)C(=O)O1` had an IC50 with Escherichia coli of 2300 nM. In addition, the MIC90 came to 4 µg/mL (≈ 11.2 µM) against Staphylococcus aureus, 1 µg/mL (≈ 2.8 µM) against Streptococcus pneumoniae and 2 µg/mL (≈ 5.6 µM) against Enterococcus faecalis.

As for `CC(=O)NC[C@H]1CN(c2ccc(N3CCOCC3)c(F)c2)C(=O)O1` [LINEZOLID], the MIC90 against Staphylococcus aureus was 4 µg/mL (≈ 11.9 µM); against Streptococcus pneumoniae, 1 µg/mL (≈ 2.96 µM); with Enterococcus faecalis, 4 µg/mL (≈ 11.9 µM).

On to `COC1(C)CN(c2c(F)cc(N3C[C@H](CNC(C)=O)OC3=O)cc2F)C1`, for which, in the assay with Escherichia coli, the IC50 came to 3700 nM. The MIC90 with Staphylococcus aureus stood at 4 µg/mL (≈ 10.8 µM); against Streptococcus pneumoniae it was 1 µg/mL (≈ 2.71 µM); in the assay on Enterococcus faecalis, 4 µg/mL (≈ 10.8 µM).

`CC(=O)NC[C@H]1CN(c2cc(F)c(N3CC(C)(O)C3)c(F)c2)C(=O)O1` showed an IC50 in the assay with Escherichia coli of 3400 nM. For the same compound, the results for the MIC90 against Staphylococcus aureus, against Streptococcus pneumoniae and against Enterococcus faecalis were 4 µg/mL (≈ 11.3 µM), 1 µg/mL (≈ 2.81 µM) and 4 µg/mL (≈ 11.3 µM), respectively.

In the assay with Escherichia coli, `CCC1(O)CCN(c2c(F)cc(N3C[C@H](CNC(C)=O)OC3=O)cc2F)CC1` yielded an IC50 of 2100 nM. In addition, the MIC90 against Staphylococcus aureus came out at 4 µg/mL (≈ 10.1 µM); in the assay on Streptococcus pneumoniae, 1 µg/mL (≈ 2.52 µM); against Enterococcus faecalis, 2 µg/mL (≈ 5.03 µM).

Turning to `COC1CN(c2c(F)cc(N3C[C@H](CNC(C)=O)OC3=O)cc2F)C1`, the IC50 in the assay with Escherichia coli turned out to be 2600 nM. Moreover, the MIC90 in the assay with Staphylococcus aureus is 2 µg/mL (≈ 5.63 µM); in the assay on Streptococcus pneumoniae, 1 µg/mL (≈ 2.81 µM); against Enterococcus faecalis, 2 µg/mL (≈ 5.63 µM).

For the compound `CC(=O)NC[C@H]1CN(c2cc(F)c(N3CC(O)C3)c(F)c2)C(=O)O1`, in the assay with Escherichia coli, the IC50 is 1900 nM. Further, the MIC90 against Staphylococcus aureus turned out to be 2 µg/mL (≈ 5.86 µM); in the assay with Streptococcus pneumoniae it was 1 µg/mL (≈ 2.93 µM); in the assay with Enterococcus faecalis, 2 µg/mL (≈ 5.86 µM).

Take `CC(=O)NC[C@H]1CN(c2cc(F)c(N3CCC(C)(O)CC3)c(F)c2)C(=O)O1`: in the assay on Escherichia coli, the IC50 worked out at 2100 nM. For the same compound, the results for the MIC90 with Staphylococcus aureus, against Streptococcus pneumoniae and against Enterococcus faecalis were 4 µg/mL (≈ 10.4 µM), 1 µg/mL (≈ 2.61 µM) and 2 µg/mL (≈ 5.22 µM), respectively.

For the compound `CC(=O)NC[C@H]1CN(c2cc(F)c(N3CCC(O)CC3)c(F)c2)C(=O)O1`, the IC50 with Escherichia coli stood at 1700 nM. Further, the MIC90 was found to be 2 µg/mL (≈ 5.41 µM) in the assay with Staphylococcus aureus, 1 µg/mL (≈ 2.71 µM) in the assay with Streptococcus pneumoniae and 2 µg/mL (≈ 5.41 µM) against Enterococcus faecalis.

With `CC(=O)NC[C@H]1CN(c2cc(F)c(N3CC(O)(C(F)(F)F)C3)c(F)c2)C(=O)O1`, the IC50 in the assay with Escherichia coli amounted to 2400 nM. Further, the MIC90 in the assay with Staphylococcus aureus was 4 µg/mL (≈ 9.77 µM); in the assay on Streptococcus pneumoniae it was 2 µg/mL (≈ 4.89 µM); in the assay on Enterococcus faecalis, 2 µg/mL (≈ 4.89 µM).

Compound `CCC1(O)CN(c2c(F)cc(N3C[C@H](CNC(C)=O)OC3=O)cc2F)C1` displayed an IC50 in the assay on Escherichia coli of 2700 nM. The MIC90 in the assay on Staphylococcus aureus worked out at 4 µg/mL (≈ 10.8 µM); against Streptococcus pneumoniae it was 2 µg/mL (≈ 5.41 µM); in the assay on Enterococcus faecalis it was 2 µg/mL (≈ 5.41 µM).

Take `CC(=O)NC[C@H]1CN(c2cc(F)c(N3CCC(CC#N)CC3)c(F)c2)C(=O)O1`: the IC50 in the assay on Escherichia coli was found to be 1600 nM. For the same compound, the values for the MIC90 in the assay on Staphylococcus aureus, against Streptococcus pneumoniae and in the assay with Enterococcus faecalis were 2 µg/mL (≈ 5.1 µM), 1 µg/mL (≈ 2.55 µM) and 1 µg/mL (≈ 2.55 µM), respectively.

Regarding `CC(=O)NC[C@H]1CN(c2cc(F)c(N3CCC(C)(CC#N)CC3)c(F)c2)C(=O)O1`, the MIC90 against Staphylococcus aureus worked out at 2 µg/mL (≈ 4.92 µM); in the assay with Streptococcus pneumoniae, 1 µg/mL (≈ 2.46 µM); in the assay on Enterococcus faecalis, 1 µg/mL (≈ 2.46 µM).
